Laboratory results from PubChem BioAssay AID192 (DTP/NCI, 2004).
Several values for one entry are separate records, joined by “and”; a condition that tells them apart may be missing. Equal values may be shown once. Inconclusive results and toxic doses are left out.

System: BDF1 mice, B16 melanoma ip, median survival T/C
Assay: NCI In Vivo Anticancer Drug Screen. Data for tumor model B16 Melanoma (intraperitoneal) in B6D2F1 (BDF1) mice
Conditions: endpoint: median survival time, higher = longer survival
Method in brief: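 Survival or tumor size is measured after treatment of tumor-bearing mice and normalised to the vehicle-treated control group.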

[1] = dose: 6.25 mg/kg/injection, schedule: Q01DX009 (ip), vehicle: saline
[2] = dose: 12.5 mg/kg/injection, schedule: Q01DX009 (ip), vehicle: saline
[3] = dose: 25.0 mg/kg/injection, schedule: Q01DX009 (ip), vehicle: saline
[4] = dose: 50.0 mg/kg/injection, schedule: Q01DX009 (ip), vehicle: Klucel (hydroxypropylcellulose) (HPC)
[5] = dose: 50.0 mg/kg/injection, schedule: Q01DX009 (ip), vehicle: saline
[6] = dose: 12.5 mg/kg/injection, schedule: Q01DX009 (ip), vehicle: saline with Tween-80
[7] = dose: 25.0 mg/kg/injection, schedule: Q01DX009 (ip), vehicle: saline with Tween-80
[8] = dose: 50.0 mg/kg/injection, schedule: Q01DX009 (ip), vehicle: saline with Tween-80
[9] = dose: 100.0 mg/kg/injection, schedule: Q01DX009 (ip), vehicle: saline with Tween-80
[10] = dose: 200.0 mg/kg/injection, schedule: Q01DX009 (ip), vehicle: saline with Tween-80
[11] = dose: 6.25 mg/kg/injection, schedule: Q01DX009 (ip), vehicle: saline with Tween-80
[12] = dose: 25.0 mg/kg/injection, schedule: Q01DX009 (ip), vehicle: Klucel (hydroxypropylcellulose) (HPC)
[13] = dose: 100.0 mg/kg/injection, schedule: Q01DX009 (ip), vehicle: saline
[14] = dose: 200.0 mg/kg/injection, schedule: Q01DX009 (ip), vehicle: saline
[15] = dose: 100.0 mg/kg/injection, schedule: Q01DX009 (ip), vehicle: Klucel (hydroxypropylcellulose) (HPC)
[16] = dose: 200.0 mg/kg/injection, schedule: Q01DX009 (ip), vehicle: Klucel (hydroxypropylcellulose) (HPC)

With `C[CH2][Ge]1([CH2]C)[CH2]CC2(CCN(CCCN(C)C)C2)C[CH2]1` the T/C (dose: 8.0 mg/kg/injection, schedule: Q02DX009 (ip), vehicle: saline) was 102 % of control, the T/C (dose: 16.0 mg/kg/injection, schedule: Q02DX009 (ip), vehicle: saline) was 106 % of control and the T/C (dose: 32.0 mg/kg/injection, schedule: Q02DX009 (ip), vehicle: saline) was 102 % of control.

In the case of `COC(=O)[C@@H]1[C@@H](O)[C@H](OC(=O)c2cc(OC)c(OC)c(OC)c2)C[C@@H]2CN3CCc4c([nH]c5ccccc45)[C@H]3C[C@@H]21`, the T/C (dose: 1.5 mg/kg/injection, schedule: Q01DX009 (ip), vehicle: Klucel (hydroxypropylcellulose) (HPC)) was 107 % of control, the T/C (dose: 3.0 mg/kg/injection, schedule: Q01DX009 (ip), vehicle: Klucel (hydroxypropylcellulose) (HPC)) was 98 % of control and the T/C (dose: 6.0 mg/kg/injection, schedule: Q01DX009 (ip), vehicle: Klucel (hydroxypropylcellulose) (HPC)) was 97 % of control.

With `OCC(O)COCC#Cc1ccccc1` (stereo not given) the T/C [1] was 118 % of control, the T/C [2] was 114 % of control and the T/C [3] was 110 % of control. The T/C [4] was 87 % of control and the T/C [5] was 101 % of control.

With `O=S(=O)(c1ccccc1)N1CN2CCN(C2)C1` the T/C [6] was 89 % of control, the T/C [7] was 98 % of control and the T/C [8] was 99 % of control. For the same compound, the T/C [9] was 100 % of control and the T/C [10] was 103 % of control.

`CC1=CCC(C(C)(C)c2ccc(O)cc2)CC1` (stereo not given) was tested, and the T/C [11] was 96 % of control, the T/C [6] was 105 % of control and the T/C [7] was 102 % of control and 106 % of control.

For `CCNC(C)(C)C(SSSC(c1cccs1)C(C)(C)NCC)c1cccs1` (stereo not given), the T/C [12] was 100 % of control and the T/C [4] was 94 % of control.

With `Nc1ccn([C@@H](C=O)O[C@@H](C=O)CO)c(=O)n1` the T/C [1] was 100 % of control and 112 % of control, the T/C [2] was 101 % of control and 102 % of control and the T/C [3] was 91 % of control and 109 % of control. The T/C [5] was 99 % of control and 103 % of control, the T/C [13] was 107 % of control and 112 % of control and the T/C [14] was 113 % of control.

For `Nc1ccccc1SC1CC(=O)N(c2ccccc2Cl)C1=O` (stereo not given), the T/C [15] was 94 % of control and the T/C [16] was 86 % of control.

In the case of `CN1CCN(Cc2c(O)ccc3c4c(c(=O)oc23)CCCC4)CC1`, the T/C (dose: 32.0 mg/kg/injection, schedule: Q01DX009 (ip), vehicle: Klucel (hydroxypropylcellulose) (HPC)) was 105 % of control, the T/C (dose: 64.0 mg/kg/injection, schedule: Q01DX009 (ip), vehicle: Klucel (hydroxypropylcellulose) (HPC)) was 100 % of control and the T/C (dose: 128.0 mg/kg/injection, schedule: Q01DX009 (ip), vehicle: Klucel (hydroxypropylcellulose) (HPC)) was 100 % of control.

`Cc1cccc(C)c1NC(=O)c1cccc(C(=O)Nc2c(C)cccc2C)c1` was tested, and the T/C [15] was 100 % of control, the T/C [16] was 94 % of control and the T/C (dose: 400.0 mg/kg/injection, schedule: Q01DX009 (ip), vehicle: Klucel (hydroxypropylcellulose) (HPC)) was 91 % of control.

In the case of `CC[C@]1(O)C[C@H](OC2CC(N(C)C)C(OC3CC(O)C(O)C(C)O3)C(C)O2)c2c(cc3c(c2O)C(=O)c2c(O)ccc(O)c2C3=O)[C@H]1C(=O)OC` (stereo not given in full), the T/C (dose: 0.2 mg/kg/injection, schedule: Q01DX009 (ip), vehicle: carboxymethylcellulose (CMC)) was 113 % of control, the T/C (dose: 0.25 mg/kg/injection, schedule: Q01DX009 (ip), vehicle: saline with Tween-80) was 120 % of control and the T/C (dose: 0.4 mg/kg/injection, schedule: Q01DX009 (ip), vehicle: carboxymethylcellulose (CMC)) was 94 % of control. For the same compound, the T/C (dose: 1.0 mg/kg/injection, schedule: Q01DX009 (ip), vehicle: saline with Tween-80) was 159 % of control and the T/C (dose: 2.0 mg/kg/injection, schedule: Q01DX009 (ip), vehicle: saline with Tween-80) was 179 % of control.

`COC(=O)c1cc(C)ccc1O` was tested, and the T/C [8] was 108 % of control, the T/C [9] was 97 % of control and the T/C [10] was 105 % of control.

For `O=C(Nc1ccccc1C(F)(F)F)c1ccc(Cl)cc1Cl`, the T/C [9] was 97 % of control and the T/C [10] was 92 % of control.

With `CCCCCCCCCC(=O)CCCCCC` the T/C [15] was 90 % of control and the T/C [16] was 89 % of control.

In the case of `COc1ccc2c(ccc[n+]2C)c1`, the T/C [1] was 93 % of control, the T/C [2] was 90 % of control and the T/C (dose: 12.5 mg/kg/injection, schedule: Q04DX003 (ip), vehicle: saline) was 100 % of control. For the same compound, the T/C [3] was 95 % of control, the T/C (dose: 25.0 mg/kg/injection, schedule: Q04DX003 (ip), vehicle: saline) was 100 % of control and the T/C (dose: 50.0 mg/kg/injection, schedule: Q04DX003 (ip), vehicle: saline) was 104 % of control.

For `O=C1CSC(=S)N1c1ccco1`, the T/C [8] was 92 % of control, the T/C [9] was 90 % of control and the T/C [10] was 87 % of control.

For `Cc1nc2ccccc2nc1CBr`, the T/C (dose: 0.4 mg/kg/injection, schedule: Q01DX009 (ip), vehicle: saline with Tween-80) was 104 % of control, the T/C (dose: 0.8 mg/kg/injection, schedule: Q01DX009 (ip), vehicle: saline with Tween-80) was 104 % of control and the T/C (dose: 0.8 mg/kg/injection, schedule: Q01DX009 (ip), vehicle: saline) was 95 % of control. The T/C (dose: 1.6 mg/kg/injection, schedule: Q01DX009 (ip), vehicle: Klucel (hydroxypropylcellulose) (HPC)) was 93 % of control, the T/C (dose: 1.6 mg/kg/injection, schedule: Q01DX009 (ip), vehicle: saline) was 93 % of control and the T/C (dose: 3.12 mg/kg/injection, schedule: Q01DX009 (ip), vehicle: Klucel (hydroxypropylcellulose) (HPC)) was 100 % of control. For the same compound, the T/C (dose: 3.2 mg/kg/injection, schedule: Q01DX009 (ip), vehicle: saline with Tween-80) was 119 % of control, the T/C (dose: 3.2 mg/kg/injection, schedule: Q01DX009 (ip), vehicle: saline) was 95 % of control and the T/C (dose: 6.25 mg/kg/injection, schedule: Q01DX009 (ip), vehicle: Klucel (hydroxypropylcellulose) (HPC)) was 87 % of control. For the same compound, the T/C [11] was 113 % of control, the T/C (dose: 6.3 mg/kg/injection, schedule: Q01DX009 (ip), vehicle: saline) was 102 % of control and the T/C (dose: 12.5 mg/kg/injection, schedule: Q01DX009 (ip), vehicle: Klucel (hydroxypropylcellulose) (HPC)) was 96 % of control. The T/C [6] was 108 % of control.

`Cc1ccc(S(=O)(=O)Cl)cc1Cl` was tested, and the T/C [7] was 108 % of control, the T/C [8] was 97 % of control and the T/C [9] was 86 % of control.

`COc1ccccc1NC(=O)Nc1ccc(C(=O)OCC(C)C)cc1` was tested, and the T/C [8] was 100 % of control, the T/C [9] was 94 % of control and the T/C [10] was 95 % of control.

`Cc1ccc2[nH]c(=O)oc(=O)c2c1` was tested, and the T/C (dose: 50.0 mg/kg/injection, schedule: Q04DX003 (ip), vehicle: Klucel (hydroxypropylcellulose) (HPC)) was 98 % of control, the T/C (dose: 100.0 mg/kg/injection, schedule: Q04DX003 (ip), vehicle: Klucel (hydroxypropylcellulose) (HPC)) was 96 % of control and the T/C (dose: 200.0 mg/kg/injection, schedule: Q04DX003 (ip), vehicle: Klucel (hydroxypropylcellulose) (HPC)) was 93 % of control.

`Cc1cc(C)cc(OC(=O)/C=C/C(=O)Oc2cc(C)cc(C)c2)c1` was tested, and the T/C [7] was 98 % of control, the T/C [8] was 87 % of control and the T/C [9] was 93 % of control.

In the case of `O=C/C=C/c1ccc([N+](=O)[O-])cc1`, the T/C [7] was 100 % of control.

In the case of `O=c1[nH]c(=O)n(C2OC(CO)C(O)C2O)cc1F` (stereo not given), the T/C (dose: 0.78 mg/kg/injection, schedule: Q01DX009 (ip), vehicle: saline) was 156 % of control, the T/C (dose: 1.56 mg/kg/injection, schedule: Q01DX009 (ip), vehicle: saline) was 165 % of control and the T/C (dose: 3.12 mg/kg/injection, schedule: Q01DX009 (ip), vehicle: saline) was 165 % of control.

`Clc1ccc2c(c1)C(N1CCOCC1)c1cc(Cl)cc(Cl)c1-2` (stereo not given) was tested, and the T/C [13] was 102 % of control, the T/C [14] was 95 % of control and the T/C (dose: 400.0 mg/kg/injection, schedule: Q01DX009 (ip), vehicle: saline) was 90 % of control. The T/C (dose: 800.0 mg/kg/injection, schedule: Q01DX009 (ip), vehicle: saline) was 90 % of control.

In the case of `NC(CC(=O)O)CC(=O)O`, the T/C (dose: 25.0 mg/kg/injection, schedule: Q01DX009 (ip), vehicle: suspension in saline) was 91 % of control, the T/C (dose: 50.0 mg/kg/injection, schedule: Q01DX009 (ip), vehicle: suspension in saline) was 92 % of control and the T/C (dose: 100.0 mg/kg/injection, schedule: Q01DX009 (ip), vehicle: suspension in saline) was 103 % of control. For the same compound, the T/C (dose: 200.0 mg/kg/injection, schedule: Q01DX009 (ip), vehicle: suspension in saline) was 100 % of control and the T/C (dose: 400.0 mg/kg/injection, schedule: Q01DX009 (ip), vehicle: suspension in saline) was 90 % of control.

`Cc1ccc(N2C(=O)CC(Sc3ccccc3N)C2=O)cc1` (stereo not given) was tested, and the T/C [12] was 97 % of control, the T/C [4] was 91 % of control and the T/C [15] was 86 % of control and 91 % of control.

For `CCCCc1ccc(-n2c(C)c(COC(=O)NC)c(COC(=O)NC)c2C)cc1`, the T/C [12] was 159 % of control.

`C[C@@H]1CN1C1=CC(=O)C(N2C[C@H]2C)=CC1=O` was tested, and the T/C (dose: 0.25 mg/kg/injection, schedule: Q01DX009 (ip), vehicle: saline) was 104 % of control and the T/C (dose: 0.5 mg/kg/injection, schedule: Q01DX009 (ip), vehicle: saline) was 95 % of control.
